Laboratory results reported in patent publication US10676429B2, “Sulfamoyl-arylamides and the use thereof as medicaments for the treatment of hepatitis B” (priority 2012, dated 2020).

Experiments:
[1] = tested on: HBV; test: Anti-HBV activity in stable transfected HepG2.2.15 cell line (HBV DNA from secreted virions, realtime PCR); assay type: cell-based; conditions: HepG2.2.15 cells, 6 days of treatment, secreted virion HBV DNA, read-out: HepG2 2.15 EC50
[2] = tested on: HBV; test: Anti-HBV activity in HepG2.117 cell line (Tet-off, intracellular HBV DNA, realtime PCR); assay type: cell-based; conditions: HepG2.117 cells, 3 days of treatment, intracellular HBV DNA, read-out: HepG2 117 EC50
[3] = tested on: HepG2 cells; test: Cytotoxicity in HepG2 cells, 4 days, Resazurin assay; conditions: read-out: HepG2 4 days CC50; HepG2 cells, 4 days, Resazurin
[4] = Cytotoxicity in HepG2 cells using CellTiter-Blue (6 days); conditions: human
[5] = Cytotoxicity in HepG2 cells, 4 days, Resazurin assay; conditions: human
[6] = tested on: HepG2 cells; test: Cytotoxicity in HepG2 cells using CellTiter-Blue (6 days); conditions: read-out: HepG2 6 days CC50, 6 days, CellTiter-Blue
[7] = Hepatitis B virus, HepG2.2.15, 144 h
[8] = Hepatitis B virus, HepG2.117, 72 h

O=C(Nc1ccc(F)cc1)c1cc(S(=O)(=O)NC2CCCCC2)ccc1F [Compound 18]
EC50 [1, 7]: 0.78 µM | EC50 [2, 8]: 1.3 µM | CC50 [3]: > 50 µM | CC50 at 6 days [4]: 51.6 µM

O=C(Nc1cccc(F)c1)c1cc(S(=O)(=O)N2CCCC2)c(Cl)cc1Cl [Compound 24]
EC50 [1, 7]: 0.79 µM | CC50 at 6 days [4]: > 25 µM

O=C(Nc1ccc(F)cc1)c1cc(S(=O)(=O)N2CCOCC2)ccc1Cl [Compound 29]
EC50 [1, 7]: 1.39 µM | CC50 at 6 days [4]: > 25 µM

O=C(Nc1ccccc1)c1cccc(S(=O)(=O)NC2CCCC2)c1 [Compound 21]
EC50 [1, 7]: 0.6 µM | EC50 [2, 8]: 0.76 µM | CC50 at 4 days ([5]; HepG2 cells): 41.1 µM | CC50 [6]: 27.2 µM

O=C(Nc1ccccc1Cl)c1ccc(Cl)c(S(=O)(=O)N2CCCCCC2)c1 [Compound 33]
EC50 [1, 7]: 3.56 µM | CC50 at 6 days [4]: > 25 µM

O=C(Nc1cccc(Cl)c1)c1cc(S(=O)(=O)NC2CCCCC2)ccc1F [Compound 43]
EC50 [1, 7]: 15.1 µM | EC50 [2, 8]: > 25 µM | CC50 at 4 days ([5]; HepG2 cells): > 25 µM | CC50 at 6 days [4]: 36.3 µM

CCN(CC)S(=O)(=O)c1ccc(Cl)c(C(=O)Nc2ccccc2)c1 [Compound 26]
EC50 [1, 7]: 1.04 µM | CC50 [6]: > 25 µM

O=C(Nc1ccc(F)cc1)c1ccc(Cl)c(S(=O)(=O)N2CCCCCC2)c1 [Compound 23]
EC50 [1, 7]: 0.66 µM | EC50 [2, 8]: 1.3 µM | CC50 at 4 days ([5]; HepG2 cells): 19.6 µM | CC50 [6]: 17 µM

O=C(Nc1ccccc1)c1cc(S(=O)(=O)NC2CCCCC2)ccc1F [Compound 19]
EC50 [1, 7]: 0.66 µM | EC50 [2, 8]: 0.6 µM | CC50 [3]: > 25 µM | CC50 at 6 days [4]: 42.5 µM

O=C(Nc1ccc(F)cc1)c1cccc(S(=O)(=O)NC2CCCC2)c1 [Compound 2]
EC50 [1, 7]: 0.47 µM | EC50 [2, 8]: 0.56 µM | CC50 [3]: 32.7 µM

Cc1cccc(NC(=O)c2cc(S(=O)(=O)N3CCOCC3)ccc2Cl)c1 [Compound 27]
EC50 [1, 7]: 1.13 µM | CC50 at 6 days [4]: > 25 µM

O=C(Nc1ccc(F)cc1)c1cccc(S(=O)(=O)N2CCOCC2)c1 [Compound 41]
EC50 [1, 7]: 8.49 µM | EC50 [2, 8]: 11 µM | CC50 [3]: > 100 µM

Cc1cc(NC(=O)c2cccc(S(=O)(=O)NC3CCC(O)C3)c2)ccc1F (single isomer, unassigned) [Compound 145c, N-(4-fluoro-3-methyl-phenyl)-3-[[(1S,3S)-3-hydroxycyclopentyl]-sulfamoyl]benzamide or N-(4-fluoro-3-methyl-phenyl)-3-[[(1R,3R)-3-hydroxycyclopentyl]sulfamoyl]benzamide]
EC50 [1]: 0.34 µM | EC50 [2]: 0.34 µM | CC50 [3]: > 25 µM

Cc1cc(NC(=O)c2cccc(S(=O)(=O)NC3Cc4ccccc4C3O)c2)ccc1F (single isomer, unassigned) [Compound 141c, N-(4-fluoro-3-methyl-phenyl)-3-[[(1S,2S)-1-hydroxyindan-2-yl]-sulfamoyl]benzamide or N-(4-fluoro-3-methyl-phenyl)-3-[[(1R,2R)-1-hydroxyindan-2-yl]sulfamoyl]benzamide]
EC50 [1]: 0.17 µM | EC50 [2]: 0.29 µM | CC50 [3]: > 25 µM

CC(=O)N1CCN(S(=O)(=O)c2cccc(C(=O)Nc3ccc(F)cc3)c2)CC1 [Compound 40]
EC50 [1, 7]: 7.1 µM | EC50 [2, 8]: 6.29 µM | CC50 [3]: > 100 µM

Cc1cccc(NC(=O)c2cc(S(=O)(=O)N3CCCCC3)ccc2Cl)c1 [Compound 22]
EC50 [1, 7]: 0.52 µM | CC50 at 6 days [4]: > 25 µM

COc1cc(NC(=O)c2cccc(S(=O)(=O)N[C@H]3CCOC3)c2)ccc1F [Compound 103]
EC50 [1, 7]: 2.33 µM | EC50 [2, 8]: 2.66 µM | CC50 [3]: > 25 µM

O=C(Nc1ccc(F)cc1)c1cccc(S(=O)(=O)N[C@@H]2CCOC2)c1 [Compound 8]
EC50 [1, 7]: 1.18 µM | EC50 [2, 8]: 2.03 µM | CC50 [3]: > 100 µM

CC(C)(C)NS(=O)(=O)c1cccc(C(=O)Nc2ccc(F)cc2)c1 [Compound 28]
EC50 [1, 7]: 1.24 µM | EC50 [2, 8]: 2.28 µM | CC50 [3]: 52.5 µM

Cc1cc(NC(=O)c2cccc(S(=O)(=O)NC3(C)COC3)c2)c(C)cc1F [Compound 119]
EC50 [1, 7]: 3.06 µM | EC50 [2, 8]: 1.91 µM | CC50 [3]: > 25 µM

Cc1cc(NC(=O)c2cccc(S(=O)(=O)NC3CC(=O)N(C)C3)c2)ccc1F (racemic) [Compound 179a]
EC50 [1]: 0.38 µM | EC50 [2]: 0.25 µM | CC50 [3]: > 25 µM

O=C(Nc1ccccc1)c1ccc(F)c(S(=O)(=O)NC2CCCCC2)c1 [Compound 31]
EC50 [1, 7]: 2.23 µM | CC50 [6]: 16.4 µM

CN(C1CCCC1)S(=O)(=O)c1cccc(C(=O)Nc2ccc(F)cc2)c1 [Compound 46]
EC50 [1, 7]: 2.61 µM | EC50 [2, 8]: 11.1 µM | CC50 [3]: 23.8 µM

O=C(Nc1ccc(F)cc1)c1cccc(S(=O)(=O)NC2CCC2)c1 [Compound 5]
EC50 [1, 7]: 0.83 µM | EC50 [2, 8]: 0.9 µM | CC50 [3]: 57.7 µM

O=C(Nc1ccc(F)cc1)c1cccc(S(=O)(=O)N[C@H]2CCOC2)c1 [Compound 9]
EC50 [1, 7]: 0.54 µM | EC50 [2, 8]: 1.36 µM | CC50 [3]: > 100 µM

O=C(Nc1ccc(F)cc1)c1cccc(S(=O)(=O)NC2COC2)c1 [Compound 3]
EC50 [1, 7]: 2.1 µM | EC50 [2, 8]: 3.05 µM | CC50 [3]: > 100 µM

Cc1c(NC(=O)c2cccc(S(=O)(=O)N[C@H]3CCOC3)c2)ccc(F)c1F [Compound 118]
EC50 [1, 7]: 3.63 µM | EC50 [2, 8]: 1.91 µM | CC50 [3]: > 25 µM

O=C(Nc1ccc(Br)cc1)c1ccc(Cl)c(S(=O)(=O)N2CCCCCC2)c1 [Compound 30]
EC50 [1, 7]: 1.67 µM | CC50 at 6 days [4]: > 25 µM

O=C(Nc1ccc(Cl)cc1)c1cc(S(=O)(=O)NC2CCCCC2)ccc1F [Compound 38]
EC50 [1, 7]: < 6.25 µM | EC50 [2, 8]: 15.5 µM | CC50 at 4 days ([5]; HepG2 cells): 22.1 µM | CC50 at 6 days [4]: 18.4 µM

O=C(Nc1ccccc1)c1cc(S(=O)(=O)N2CCCCC2)c(Cl)cc1Cl [Compound 20]
EC50 [1, 7]: 0.5 µM | EC50 [2, 8]: 1 µM | CC50 at 4 days [5]: 79.6 µM | CC50 [6]: > 25 µM

O=C(Nc1ccccc1Cl)c1cc(S(=O)(=O)NC2CCCCC2)ccc1F [Compound 42]
EC50 [1, 7]: 11.6 µM | EC50 [2, 8]: > 25 µM | CC50 at 6 days [4]: 37.2 µM

CN1CCC(NS(=O)(=O)c2cccc(C(=O)Nc3ccc(F)cc3)c2)CC1 [Compound 45]
EC50 [1, 7]: 59.3 µM | EC50 [2, 8]: 16 µM | CC50 [3]: > 100 µM

Cc1cc(NC(=O)c2cccc(S(=O)(=O)NC3Cc4ccccc4C3O)c2)ccc1F (single isomer, unassigned) [Compound 141b, N-(4-fluoro-3-methyl-phenyl)-3-[[(1R,2S)-1-hydroxyindan-2-yl]sulfamoyl]benzamide or N-(4-fluoro-3-methyl-phenyl)-3-[[(1S,2R)-1-hydroxyindan-2-yl]sulfamoyl]benzamide]
EC50 [1]: 0.27 µM | EC50 [2]: 0.23 µM | CC50 [3]: > 25 µM

CN1CCN(S(=O)(=O)c2cccc(C(=O)Nc3ccc(F)cc3)c2)CC1 [Compound 44]
EC50 [1, 7]: 26.5 µM | EC50 [2, 8]: 11.1 µM | CC50 [3]: > 100 µM

CC(C)NS(=O)(=O)c1cccc(C(=O)Nc2ccc(F)cc2)c1 [Compound 47]
EC50 [1, 7]: 0.74 µM | EC50 [2, 8]: 0.96 µM | CC50 [3]: 57.5 µM

O=C(Nc1ccccc1)c1cc(S(=O)(=O)NCc2ccccc2)ccc1Cl [Compound 25]
EC50 [1, 7]: 0.8 µM | EC50 [2, 8]: 1.02 µM | CC50 at 4 days ([5]; HepG2 cells): > 6.25 µM | CC50 at 6 days [4]: > 25 µM

Cc1cc(NC(=O)c2cccc(S(=O)(=O)NC3Cc4ccccc4C3O)c2)ccc1F (single isomer, unassigned) [Compound 141d, N-(4-fluoro-3-methyl-phenyl)-3-[[(1R,2S)-1-hydroxyindan-2-yl]sulfamoyl]benzamide or N-(4-fluoro-3-methyl-phenyl)-3-[[(1S,2R)-1-hydroxyindan-2-yl]sulfamoyl]benzamide]
EC50 [1]: 0.56 µM | EC50 [2]: 1.14 µM | CC50 [3]: > 25 µM

COc1ccc(NC(=O)c2ccc(Cl)c(S(=O)(=O)N3CCCCCC3)c2)cc1 [Compound 32]
EC50 [1, 7]: 2.59 µM | EC50 [2, 8]: 4.58 µM | CC50 at 4 days ([5]; HepG2 cells): > 25 µM | CC50 at 6 days [4]: 9.9 µM

Cc1c(F)ccc(NC(=O)c2cccc(S(=O)(=O)NC3(C)COC3)c2)c1C [Compound 115]
EC50 [1, 7]: 2.74 µM | EC50 [2, 8]: 1.65 µM | CC50 [3]: > 25 µM
